This data set is described as follows: Human HepG2 cell viability assay in 384 well format. The class given is toxicity, cell-based. The arrangement: dose 125 nL, time 70.5 hour; concentration not given beside the values. Conditions: HepG2 cells, read-out: Inhibition.
As for `O=C(CN1CC(n2cccn2)C1)NCCc1c[nH]c2ccccc12`, the cytotoxicity at 70.5 h is -13.2%.

With `Cc1cnc(NCc2csc(C(C)C)n2)nc1-c1cnn(C)c1`, the cytotoxicity at 70.5 h is -14.9%.

As to `O=C(CCn1cncn1)NCC1CCOC1` (centres undefined), the cytotoxicity at 70.5 h was -6.75%.

For the compound `O=C(NCc1ccccc1CN1CCC(O)CC1)Nc1cccnc1`, the cytotoxicity at 70.5 h is -4.5%.

As for `CC(C)(CCS(C)(=O)=O)CNC(=O)NC1CCCC1(C)C` (centres undefined), the cytotoxicity at 70.5 h is -6.64%.

Consider `CO[C@H]1COCCN(C(=O)c2cc(C)oc2C(F)(F)F)C1`, for which the cytotoxicity at 70.5 h is -3.96%.

For `COCCN1CCC(CN(C)c2ncnc3c2c(C)nn3C)C1` (centres undefined), the cytotoxicity at 70.5 h came to 6.13%.

As to `Cc1nn(CC(C)C)c(N(C)C)c1CNCCS(C)(=O)=O`, the cytotoxicity at 70.5 h came to 5.47%.

`CCOC(=O)[C@H]1[C@@H](O)C(=O)N(C)C12CCN(C(=O)OC)CC2`: the cytotoxicity at 70.5 h came to 7.43%.

Take `Cc1noc(C(C)SCc2ccccn2)n1` (centres undefined): the cytotoxicity at 70.5 h was -8.37%.

Take `CCc1nc(C)c(CC(=O)N2CCC3(CC2)OCCCC3OC)c(=O)[nH]1` (centres undefined): the cytotoxicity at 70.5 h is -6.31%.

Turning to `CC(C)=CCN1CCN(Cc2cc(C)n[nH]2)CC1CCO` (centres undefined), the cytotoxicity at 70.5 h turned out to be 4.87%.

As for `O=C(CCc1nnc2ccccn2c1=O)NCc1cccnc1`, the cytotoxicity at 70.5 h was -14.8%.

On to `Cc1ccc(CN2CCN(Cc3ccc4nonc4c3)CC2=O)cc1`, for which the cytotoxicity at 70.5 h turned out to be 1.65%.

With `O=C(c1ccc(-c2cnco2)cc1)N1CCC(Nc2cccnn2)CC1`, the cytotoxicity at 70.5 h was -4.21%.

On to `c1ccc(Cc2nnc([C@H]3CCN(C4CCCCC4)C3)o2)cc1`, for which the cytotoxicity at 70.5 h was 1.09%.

As to `Cc1cccc2nc(CN3CCCC(Cn4ccnn4)C3)cc(=O)n12` (centres undefined), the cytotoxicity at 70.5 h amounted to 2.5%.

Regarding `CSCCC(=O)N1C[C@@H](C)[C@](O)(C(C)C)C1`, the cytotoxicity at 70.5 h is -9.47%.

Regarding `Cc1cnn(CC(C)Nc2cnc3ccccc3n2)c1` (centres undefined), the cytotoxicity at 70.5 h was 4.57%.

For `Fc1ccc(-c2nnc(CN3CCOC(Cn4cncn4)C3)o2)cc1` (centres undefined), the cytotoxicity at 70.5 h is -28.7%.

Regarding `Fc1ccc(C(NCc2nnc(-c3ccco3)o2)C2CCC2)cc1` (centres undefined), the cytotoxicity at 70.5 h was -12%.

For the compound `COc1cccc(-n2c(C)cc(C(=O)NS(C)(=O)=O)c2C)c1`, the cytotoxicity at 70.5 h was -1.93%.

Regarding `O=C(Nc1ccc(-n2cccn2)cc1)N1CCC(O)C1` (centres undefined), the cytotoxicity at 70.5 h came out at 28.4%.

For `CC(Cn1cccn1)NC(=O)CCc1nc(C(C)(C)C)no1` (centres undefined), the cytotoxicity at 70.5 h is -2.44%.

On to `CN(C)c1cc(C(=O)N2CCCN(Cc3nccn3C)CC2)ccn1`, for which the cytotoxicity at 70.5 h was 14.3%.

As to `CN(Cc1cnn(C)c1)S(=O)(=O)N1CCCCC1`, the cytotoxicity at 70.5 h was -5.36%.

With `O=C(CC1CCc2ccccc21)NC1(C(=O)O)CCCC1` (centres undefined), the cytotoxicity at 70.5 h is 22.9%.

On to `CC(NC(=O)NCCCN1CCCC1)c1nncn1C` (centres undefined), for which the cytotoxicity at 70.5 h is -7.79%.

`CC(NC(=O)CNc1cc2c(cc1Cl)OCCO2)c1ccco1` (centres undefined): the cytotoxicity at 70.5 h was -8.18%.

Consider `CC(=O)NC1CCc2ccc(S(=O)(=O)NCc3ncccc3C)cc21` (centres undefined), for which the cytotoxicity at 70.5 h was determined as 39.1%.

Turning to `CO[C@H]1CCN(C(=O)c2cc(C)on2)C[C@@H]1Cc1ccccc1`, the cytotoxicity at 70.5 h was 5.73%.

For the compound `CN(CCCc1nccn1C)c1nccc(N2CCC(O)C2)n1` (centres undefined), the cytotoxicity at 70.5 h is 7.29%.

For `CCN(CC1CCCN(CCc2cccc(OC)c2)C1)C(=O)CN(C)C` (centres undefined), the cytotoxicity at 70.5 h was -0.489%.

In the case of `CC(C)OCCCNC(=O)c1c(-n2cnnn2)sc2c1CCCC2`, the cytotoxicity at 70.5 h is -25.4%.

For `COc1cc(N2CCO[C@H]3[C@@H](Oc4cccnc4)CC[C@@H]32)ncn1`, the cytotoxicity at 70.5 h is 26.1%.

With `CC[C@@H](NC(C)=O)C(=O)NCc1cccnc1Oc1ccccc1OC`, the cytotoxicity at 70.5 h amounted to 8.31%.

For `Cc1cccc(C(C(=O)NCc2nc(-c3cccnc3)no2)N(C)C)c1` (centres undefined), the cytotoxicity at 70.5 h is 19.5%.

Turning to `COCCOC[C@]1(CNCc2ccc(F)cc2)C[C@@H](O)[C@@H](O)C1`, the cytotoxicity at 70.5 h turned out to be 11.8%.

On to `CN(CCO)C[C@@H]1CN(Cc2ccccc2C#N)C[C@@H]1CO`, for which the cytotoxicity at 70.5 h was -3.5%.

For the compound `OC(CN1CCN(Cc2ccc(F)c(F)c2)CC1)C1CC1` (centres undefined), the cytotoxicity at 70.5 h worked out at 0.728%.

As for `CC(C)Cc1cc(NC(=O)c2ccncc2)n(C)n1`, the cytotoxicity at 70.5 h was -11.6%.

`CCN1CCC2(CC1)C(=O)N(c1ccc(C)nc1)CCN2CC(C)C`: the cytotoxicity at 70.5 h was -3%.

Take `CCN(CC(=O)NC(C)C)S(=O)(=O)N1CCC(C)C1` (centres undefined): the cytotoxicity at 70.5 h was -6.99%.

Turning to `CCc1n[nH]c(C2CN(C(=O)c3ccsc3)CCO2)n1` (centres undefined), the cytotoxicity at 70.5 h is -9.96%.

As for `Cc1ncsc1CNC(=O)NCC1(c2ccc3c(c2)OCO3)CC1`, the cytotoxicity at 70.5 h is 19%.

Take `O=C(NCC1=CCCCC1)C(c1cccnc1)N1CCOCC1` (centres undefined): the cytotoxicity at 70.5 h was -1.14%.

For `O=C(NC[C@H]1CC[C@H](c2ccnc3ncnn32)CC1)C1CC1`, the cytotoxicity at 70.5 h amounted to 22.4%.

For `CC(=O)Nc1cc2c(cc1C)OCO2`, the cytotoxicity at 70.5 h was 21.5%.

As for `COc1nccnc1-c1cccc(-c2ccn(CC3COCCO3)n2)c1` (centres undefined), the cytotoxicity at 70.5 h was -6.47%.

As to `Cc1cc(C(=O)N2CC[C@@]3(O)CCN(C(=O)N4CCCC4)C[C@H]3C2)no1`, the cytotoxicity at 70.5 h was -4%.

Consider `Cn1ccnc1CN1CCCN(C(=O)c2ccc3cc[nH]c3c2)CC1`, for which the cytotoxicity at 70.5 h was -7.08%.

As for `O=C(C1CC1)N1C[C@H]2CNC[C@@]2(C(=O)NCCCc2ccccc2)C1`, the cytotoxicity at 70.5 h was -1.55%.

Regarding `CC(NS(N)(=O)=O)c1ccc(OCc2ccc(F)cc2)cc1` (centres undefined), the cytotoxicity at 70.5 h was -0.493%.

As for `O=C(NCCO)c1coc(Cn2cnc3ccccc32)n1`, the cytotoxicity at 70.5 h was -1.94%.

Take `CNC(=O)CN1CCOCC12CCN(C(=O)c1ccccc1)CC2`: the cytotoxicity at 70.5 h is -5.33%.

Regarding `COCCOCC(=O)Nc1ccnn1-c1ccc(Cl)cc1`, the cytotoxicity at 70.5 h is -0.967%.

As to `Cn1cc(CNc2cnn(CCO)c2)c(-c2ccncc2)n1`, the cytotoxicity at 70.5 h is -5.07%.

On to `Cc1ccc(F)cc1-n1c(COC(C)C)n[nH]c1=O`, for which the cytotoxicity at 70.5 h is -5.58%.

Regarding `CCN1CCC(CNC(=O)Nc2cccnc2OC)CC1`, the cytotoxicity at 70.5 h is -6.19%.

On to `Cn1nc(C2CN(C(=O)c3cscn3)C2)c2nccnc21`, for which the cytotoxicity at 70.5 h was -3.87%.

`CCn1cnnc1CNC(=O)c1ccc(Cl)cc1I`: the cytotoxicity at 70.5 h was -7.84%.

Consider `CC(C)c1nccn1-c1cncc(C2CCCN2Cc2cccnc2)n1` (centres undefined), for which the cytotoxicity at 70.5 h is -1.69%.

For the compound `Cc1nnc(NCCC(=O)N(C)Cc2ccccc2)c(C#N)c1C`, the cytotoxicity at 70.5 h came out at 3.39%.

In the case of `O=C(NC(c1ccc(Cl)cc1)C(F)(F)F)c1nc(=O)[nH][nH]1` (centres undefined), the cytotoxicity at 70.5 h came to 29.9%.

For `CNS(=O)(=O)c1ccc(C(=O)N2CCCC2c2cnn(C)c2)o1` (centres undefined), the cytotoxicity at 70.5 h was 23%.

On to `CC(=O)N1CCCN(C(=O)NCCCn2cncn2)CC1`, for which the cytotoxicity at 70.5 h was -0.358%.

As for `CCN(CC)Cc1cc(C(=O)N2CC(C)(C)[C@@](C)(O)C2)c(C)o1`, the cytotoxicity at 70.5 h was determined as 8.35%.

Turning to `Cn1nccc1C(=O)N1C[C@@H]2CC[C@H](Oc3cccc(F)c3)[C@@H]2C1`, the cytotoxicity at 70.5 h is -3.82%.

As to `Cc1ncc(CNC(=O)c2nn(C)c3c2CS(=O)(=O)CC3)s1`, the cytotoxicity at 70.5 h was -5.86%.

As to `Cc1cc(C)n(CC2CCCN2CC(=O)N(C)C)n1` (centres undefined), the cytotoxicity at 70.5 h was -11.4%.

Regarding `O=C(CN1CCS(=O)(=O)CC1)NC1CCCCc2ccccc21` (centres undefined), the cytotoxicity at 70.5 h is -1.09%.

As for `O=C(CCc1cccnc1)N1CCC2(CCN(CC3CCCC3)C2)C1` (centres undefined), the cytotoxicity at 70.5 h was 23.3%.

As for `Cc1ccc(N2C[C@H]3OCC[C@H]3[C@H](C(=O)NCC3CC3)C2)nn1`, the cytotoxicity at 70.5 h was -12.5%.

On to `Cc1cc(NC(=O)CN2CCc3cncnc3C2)no1`, for which the cytotoxicity at 70.5 h is 25.7%.

As for `CCn1cnnc1CNC(=O)N1CCN(c2nc(C)c(C)s2)CC1`, the cytotoxicity at 70.5 h was -3.66%.

On to `O=C(CCn1cccn1)NCCOc1ccc2c(c1)OCO2`, for which the cytotoxicity at 70.5 h was -6.03%.

As for `NC(=O)C1CN(c2ccc(Br)cn2)CCO1` (centres undefined), the cytotoxicity at 70.5 h is -26.8%.

As to `Cc1cc(CN2CCN3C[C@H](c4ccccc4)[C@@H](CO)[C@H]3C2)on1`, the cytotoxicity at 70.5 h was -5.95%.

In the case of `CC(C)CN1CC(C(=O)NCc2ccnc(-n3cccn3)c2)CC1=O` (centres undefined), the cytotoxicity at 70.5 h amounted to 12.8%.

In the case of `Cc1nc2ccnn2c(C)c1CCC(=O)N1CCC(C(N)=O)CC1`, the cytotoxicity at 70.5 h stood at 2.4%.

Turning to `CC(C)(O)CCc1ccc(C(=O)NCCC2CCCOC2)cc1` (centres undefined), the cytotoxicity at 70.5 h was -0.926%.

For the compound `CCc1nc(CN(C)Cc2ncc(-c3cccs3)o2)cs1`, the cytotoxicity at 70.5 h is -1.61%.

For the compound `COc1cccc(CN2CCN(C(=O)Nc3nc(C)ns3)CC2=O)c1`, the cytotoxicity at 70.5 h was -0.713%.

`Cc1cnc(N2CCOC(C(=O)NCc3ccccc3)C2)s1` (centres undefined): the cytotoxicity at 70.5 h was -15.2%.

Consider `CCn1c(C2CCCNC2)nn(CCn2cncn2)c1=O` (centres undefined), for which the cytotoxicity at 70.5 h was -8.3%.

`Cc1cc(C)c(CNC(=O)NCC(O)c2ccccc2)c(=O)[nH]1` (centres undefined): the cytotoxicity at 70.5 h is -1.05%.

For `O=C(c1cc(C2CC2)on1)N1CCCC(n2cncn2)C1` (centres undefined), the cytotoxicity at 70.5 h amounted to 30.6%.

In the case of `Cc1cc(C(=O)NCc2c(C)nn(C)c2C)nc(N2CCCC2)n1`, the cytotoxicity at 70.5 h was -3.65%.

For `Cc1n[nH]c(C)c1CC(=O)N1CCC(O)(CN2CCOCC2)C1` (centres undefined), the cytotoxicity at 70.5 h was -12.6%.

Consider `O=C(c1cccc(F)c1Cl)N(CCO)CC1CC1`, for which the cytotoxicity at 70.5 h is -1.98%.

For the compound `CCS(=O)(=O)N1CCOC2(COCCN(C(C)=O)C2)C1` (centres undefined), the cytotoxicity at 70.5 h worked out at 28.6%.

For `CN(Cc1cccnc1)C1CC2(CCN(Cc3ccccn3)CC2)C1`, the cytotoxicity at 70.5 h is -11.6%.

Take `CCOc1ccc(C(=O)N2C[C@H]3CC[C@@H]2CN(C(=O)C2CCC2)C3)cc1`: the cytotoxicity at 70.5 h was -0.418%.

As for `CC(C)(O)CN1CCN(C(=O)c2cccn2Cc2ccccc2)CC1`, the cytotoxicity at 70.5 h was -6.76%.

Regarding `CCS(=O)(=O)CCCN1CCSCC1c1ccc(Cl)cc1` (centres undefined), the cytotoxicity at 70.5 h was -13.2%.

Take `Cc1noc(C2CCN(C(=O)CCc3ccccn3)CC2)n1`: the cytotoxicity at 70.5 h is -4.44%.

Regarding `COc1cc(NCc2cccnc2)c(-c2nn[nH]n2)cc1OC`, the cytotoxicity at 70.5 h was -11.1%.

Regarding `Cc1ccc(CN2CC[C@H](c3nnc(COc4ccc(F)cc4)o3)C2)o1`, the cytotoxicity at 70.5 h is -6.96%.

As to `COCc1nc(C(=O)N2CCCC(n3ccnc3C(C)C)C2)cs1` (centres undefined), the cytotoxicity at 70.5 h was -12.2%.
